Measured values from patent US20160160264A1, “DIAGNOSTIC IN VITRO METHOD” (UNIVERSITÄT ZU KÖLN, priority 2013, published 2016).

Molecular target: T1, recombinantly expressed and purified TPMT (Homo sapiens, UniProt P51580)
T1 construct: made in house
T1 sequence (P51580 1-245): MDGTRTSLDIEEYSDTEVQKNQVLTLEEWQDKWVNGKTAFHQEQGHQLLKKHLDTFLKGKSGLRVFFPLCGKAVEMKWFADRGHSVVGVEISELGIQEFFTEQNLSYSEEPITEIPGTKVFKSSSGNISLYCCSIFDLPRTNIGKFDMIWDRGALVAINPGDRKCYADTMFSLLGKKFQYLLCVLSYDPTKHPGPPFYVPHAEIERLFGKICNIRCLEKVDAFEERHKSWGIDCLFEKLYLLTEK
Test: Steady state kinetics with purified TPMT (substrate methylation, HPLC analysis)
Type: biochemical
Details: compound as substrate of 3 ng/μL purified TPMT; Moco: urothione synthesis in presence of alkaline phosphatase; 6-mercaptopurine: 6-methylmercaptopurine synthesis
Method: (A) Kinetics of the urothione synthesis by TPMT in the presence of alkaline phosphatase. (B) Kinetics of the 6-methylmercaptopurine synthesis by TPMT. (C) Kinetic parameters of the kinetics shown in A and B.
The in vitro synthesis of urothione in kidney protein extracts is dependent on S-adenosylmethionine and Moco. […] Quantities used: 1.7 μg/μl kidney extract, 5 μM Moco, 500 μM SAM, 250 μM DTT in 0.1 M Tris/HCl pH7.5. The reaction was incubated for 4 h at 37° C. and then heat-denatured for 1 h at 60° for stopping and purified by means of QAE-Sepharose. The eluate was dried up and taken up in the HPLC solvent. HPLC analysis took place on a C4 Reprosil® 100 HPLC column, 150×2 mm, 5 μm particle size (Dr. Maisch GmbH) with 20 mM acetic acid and 15% methanol by isocratic elution. […] The increase of the peak at 24 min elution time indicates the formation of urothione. The increase of the peak at 31 min elution time indicates the formation of jukathione. Quantities used: 20 ng/μl TPMT, 2-16 μM Moco, 500 μM SAM, 250 μM DTT in 0.1 M Tris/HCl pH7.5. The reaction was incubated for 1 h at 37° C. and then heat-denatured for 1 h at 60° for stopping. The eluate was dried up and taken up in the HPLC solvent. HPLC analysis took place on a YMC C18 Hydrosphere@ column, 250×4 mm, 5 μm particle size with 20 mM formic acid by elution in a methanol gradient (0-25% 20 min, 1 mL/min). […] The in vitro transformation of Moco by means of liver extracts into urothione in the presence and absence of the TPMT inhibitor 3,4,5-triiodo benzoic acid is shown in FIG. 4. […] The in vitro transformation of Moco by purified TPMT into jukathione in the presence and absence of the TPMT inhibitor 3,4,5-triiodo benzoic acid is shown in FIG. 5. An HPLC chromatogram is shown of the analysis of jukathione after the incubation of purified 1 ng/μL TPMT with 500 μM SAM, 250 μM DTT and 10 μM Moco in the presence and absence of 2.5 μM 3,4,5-triiodo benzoic acid (inhibitor). […] What is depicted is the in vitro synthesis of urothione in protein extracts from RBCs from individuals with a normal TPMT activity (wild type) and persons with heterozygous mutations in the TPMT gene locus (heterozygous), and one person with a homozygous mutation (homozygous) in the TPMT gene locus. […] What is shown is the determination of the urothione content in individuals with a normal TPMT activity (wild type) and persons with heterozygous mutations in the TPMT gene locus (heterozygous), and two persons with homozygous mutations (homozygous) in the TPMT gene locus.
Urothione detection: 10 μM Moco (isolated from heat-denaturated human sulfite oxidase) are incubated in 50 mM Tris/HCl, pH 7.2, 1 mM SAM, 250 μM dithiothreitol and 1.7 μg/μL liver protein extract or 3.4 μg/μL RBCs for 4 h at 37° C. […]

Structure (SMILES)	KM	kcat
Sc1ncnc2nc[nH]c12 [6-mercaptopurine]	69 µM	0.047 s⁻¹
Nc1nc2c(c(=O)[nH]1)NC1C3=C([S][Mo](=[O])(=[O])([O-])[S]3)C(COP(=O)([O-])O)OC1N2 (stereo not shown) [Moco]	2 µM	0.129 s⁻¹
